Measurements from patent US20240415914A1, “Water Dispersible Cannabinoid Compositions” (priority 2021, published 2024).

Test: Stability of cannabinoid and Vitamin E components of Beverage 2 (AB Red) stored at 8° C. and 21-25° C., LCMSMS over 570 days
Experimental: The LCMSMS was calibrated for 0-50 ng/ml cannabinoids with the same resin material used in the preparation of the concentrates. At each time period, 100 μml of beverage was diluted with 10 ml of methanol and injected into the LCMSMS for analysis.

Question: Which results are given for `CCCCCc1cc(O)c2c(c1)OC1(C)CCC3C1C2C3(C)C` (centres unmarked) [CBL, cannabicyclol]?
Answer: Stability of Cannabinoids in AB Red (8° C., 26 days): 0.502 µg/mL; Stability of Cannabinoids in AB Red (8° C., 29 days): 0.511 µg/mL; Stability of Cannabinoids in AB Red (8° C., 30 days): 0.511 µg/mL; Stability of Cannabinoids in AB Red (8° C., 60 days): 0.491 µg/mL; Stability of Cannabinoids in AB Red (8° C., 90 days): 0.501 µg/mL; Stability of Cannabinoids in AB Red (8° C., 120 days): 0.488 µg/mL; Stability of Cannabinoids in AB Red (8° C., 150 days): 0.501 µg/mL; Stability of Cannabinoids in AB Red (8° C., 180 days): 0.506 µg/mL; Stability of Cannabinoids in AB Red (8° C., 210 days): 0.490 µg/mL; Stability of Cannabinoids in AB Red (8° C., 240 days): 0.490 µg/mL; Stability of Cannabinoids in AB Red (8° C., 270 days): 0.504 µg/mL; Stability of Cannabinoids in AB Red (8° C., 300 days): 0.489 µg/mL; Stability of Cannabinoids in AB Red (8° C., 330 days): 0.505 µg/mL; Stability of Cannabinoids in AB Red (8° C., 390 days): 0.491 µg/mL; Stability of Cannabinoids in AB Red (8° C., 420 days): 0.494 µg/mL; Stability of Cannabinoids in AB Red (8° C., 450 days): 0.492 µg/mL; Stability of Cannabinoids in AB Red (8° C., 480 days): 0.487 µg/mL; Stability of Cannabinoids in AB Red (8° C., 510 days): 0.468 µg/mL; Stability of Cannabinoids in AB Red (8° C., 540 days): 0.470 µg/mL; Stability of Cannabinoids in AB Red (8° C., 570 days): 0.469 µg/mL; Stability of Cannabinoids in AB Red (21-25° C., 0 days): 0.51 µg/mL; Stability of Cannabinoids in AB Red (21-25° C., 1 days): 0.50 µg/mL; Stability of Cannabinoids in AB Red (21-25° C., 2 days): 0.50 µg/mL; Stability of Cannabinoids in AB Red (21-25° C., 3 days): 0.50 µg/mL; Stability of Cannabinoids in AB Red (21-25° C., 5 days): 0.51 µg/mL; Stability of Cannabinoids in AB Red (21-25° C., 8 days): 0.50 µg/mL; Stability of Cannabinoids in AB Red (21-25° C., 9 days): 0.51 µg/mL; Stability of Cannabinoids in AB Red (21-25° C., 10 days): 0.50 µg/mL; Stability of Cannabinoids in AB Red (21-25° C., 11 days): 0.50 µg/mL; Stability of Cannabinoids in AB Red (21-25° C., 12 days): 0.50 µg/mL; Stability of Cannabinoids in AB Red (21-25° C., 15 days): 0.50 µg/mL; Stability of Cannabinoids in AB Red (21-25° C., 16 days): 0.51 µg/mL; Stability of Cannabinoids in AB Red (21-25° C., 17 days): 0.51 µg/mL; Stability of Cannabinoids in AB Red (21-25° C., 18 days): 0.50 µg/mL; Stability of Cannabinoids in AB Red (21-25° C., 19 days): 0.49 µg/mL; Stability of Cannabinoids in AB Red (21-25° C., 22 days): 0.49 µg/mL; Stability of Cannabinoids in AB Red (21-25° C., 23 days): 0.51 µg/mL; Stability of Cannabinoids in AB Red (21-25° C., 24 days): 0.50 µg/mL; Stability of Cannabinoids in AB Red (21-25° C., 25 days): 0.51 µg/mL; Stability of Cannabinoids in AB Red (21-25° C., 26 days): 0.51 µg/mL; Stability of Cannabinoids in AB Red (21-25° C., 29 days): 0.49 µg/mL; Stability of Cannabinoids in AB Red (21-25° C., 30 days): 0.51 µg/mL; Stability of Cannabinoids in AB Red (21-25° C., 60 days): 0.50 µg/mL; Stability of Cannabinoids in AB Red (21-25° C., 90 days): 0.49 µg/mL; Stability of Cannabinoids in AB Red (21-25° C., 120 days): 0.50 µg/mL; Stability of Cannabinoids in AB Red (21-25° C., 150 days): 0.49 µg/mL; Stability of Cannabinoids in AB Red (21-25° C., 180 days): 0.50 µg/mL; Stability of Cannabinoids in AB Red (21-25° C., 210 days): 0.49 µg/mL; Stability of Cannabinoids in AB Red (21-25° C., 240 days): 0.49 µg/mL; Stability of Cannabinoids in AB Red (21-25° C., 270 days): 0.49 µg/mL; Stability of Cannabinoids in AB Red (21-25° C., 300 days): 0.50 µg/mL; Stability of Cannabinoids in AB Red (21-25° C., 330 days): 0.50 µg/mL; Stability of Cannabinoids in AB Red (21-25° C., 390 days): 0.49 µg/mL; Stability of Cannabinoids in AB Red (21-25° C., 420 days): 0.48 µg/mL; Stability of Cannabinoids in AB Red (21-25° C., 450 days): 0.49 µg/mL; Stability of Cannabinoids in AB Red (21-25° C., 480 days): 0.48 µg/mL; Stability of Cannabinoids in AB Red (21-25° C., 510 days): 0.47 µg/mL; Stability of Cannabinoids in AB Red (21-25° C., 540 days): 0.47 µg/mL; Stability of Cannabinoids in AB Red (21-25° C., 570 days): 0.47 µg/mL
